The values below come from PMC7113892 (Antiviral Research, 2017).

pIC50: −log10 of the molar value. Where only a bound is given, the exact number is not on record here.

For experiment [1], the target named is human RNA N7-methyltransferase (RNMT) (Homo sapiens, UniProt O43148). The experiment is described as follows: biochemical.
The next experiment has as its target DENV-2 NS5-RdRp (Dengue virus type 2, UniProt P14340). Type of experiment: biochemical. Particulars: 50 μM.

Usually pIC50 stands for −log10 of the IC50, conventionally taken in molar units. A low value points to a large IC50.

Sequence of human RNA N7-methyltransferase (RNMT) (O43148 whole entry, looked up): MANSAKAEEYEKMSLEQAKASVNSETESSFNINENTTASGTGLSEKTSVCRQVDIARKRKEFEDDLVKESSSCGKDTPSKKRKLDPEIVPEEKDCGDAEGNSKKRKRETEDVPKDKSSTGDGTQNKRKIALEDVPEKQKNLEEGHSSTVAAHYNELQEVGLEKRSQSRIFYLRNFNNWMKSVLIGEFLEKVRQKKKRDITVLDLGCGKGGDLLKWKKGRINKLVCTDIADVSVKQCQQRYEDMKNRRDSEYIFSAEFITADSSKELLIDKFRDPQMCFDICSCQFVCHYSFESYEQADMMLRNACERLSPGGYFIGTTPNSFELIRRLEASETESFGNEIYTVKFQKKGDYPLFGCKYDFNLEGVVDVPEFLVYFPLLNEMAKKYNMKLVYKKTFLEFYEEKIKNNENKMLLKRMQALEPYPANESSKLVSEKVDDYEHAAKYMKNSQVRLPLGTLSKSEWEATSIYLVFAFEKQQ

With `Nc1ncnc2c1ncn2[C@@H]1O[C@H](C[C@@H](N)CC[C@H](N)C(=O)O)[C@@H](O)[C@H]1O` [Sinefungin], the pIC50 in experiment [1] is more than 7.30. Further, the “Inhibition of RdRp activity of DENV NS5 (in words)” value on DENV-2 NS5-RdRp is on record as “no inhibition detected”.
